Results taken from US5283271A, “3,5-diphenyl or substituted 3,5-diphenyl-1-hydroxy-1,2-dihydroimidazole-2-thiones” (Olin Corporation, priority 1992, dated 1994).
Converted amounts (≈) assume the structure as drawn. Structures can show the parent of a compound that is named as a salt. Where two headings read alike, the source gives them in different places.

Experiments:
Type in all cases: cell-based
[1] = tested on: Aureobasidium pullulans; test: Minimum Inhibitory Concentration (MIC), Aureobasidium pullulans
Protocol: (§1) Determination of the Minimum Inhibitory Concentrations (MIC's) for the Compounds Prepared in Part A
(§2) Solutions of the experimental compounds in dimethyl sulfoxide and an aqueous solution of sodium pyrithione were serially diluted in nutrient broth (Tryptic Soy Broth for bacteria and Sabouraud Dextrose Broth for fungi) in microtiter plates. Equal volumes of a broth supension of bacteria (10^6 CFU/ml) or fungi (10^5 cells or spores/ml) were added to each dilution, and the plates were incubated at 37° C. (bacteria and yeast) or 28° C. (molds). Bacteria, yeast and molds were incubated two, five and seven days respectively before determining the highest inhibitory dilution.

[2] = tested on: Candida albicans; test: Minimum Inhibitory Concentration (MIC), Candida albicans; conditions: 120 h
Protocol: as §1, §2

[3] = tested on: Aspergillins niger; test: Minimum Inhibitory Concentration (MIC), Aspergillins niger; conditions: 168 h
Protocol: as §1, §2

[4] = tested on: E. Coli; test: Minimum Inhibitory Concentration (MIC), E. Coli; conditions: Escherichia coli, 48 h, Tryptic Soy Broth, 37° C., two days
Protocol: as §1, §2

[5] = tested on: S. aureus; test: Minimum Inhibitory Concentration (MIC), S. aureus; conditions: Staphylococcus aureus, 48 h, Tryptic Soy Broth, 37° C., two days
Protocol: as §1, §2

[6] = tested on: Fusarium; test: Minimum Inhibitory Concentration (MIC), Fusarium; conditions: 168 h, Sabouraud Dextrose Broth, 28° C., seven days (molds)
Protocol: as §1, §2

[7] = Sabouraud Dextrose Broth, read-out: MIC
[8] = Sabouraud Dextrose Broth, 37° C., five days (yeast), read-out: MIC
[9] = Aspergillins niger, Sabouraud Dextrose Broth, 28° C., seven days (molds), read-out: MIC

SMILES | MIC [1, 7] [µg/mL] | MIC [2, 8] [µg/mL] | MIC [3, 9] [µg/mL] | MIC [4] [µg/mL] | MIC [5] [µg/mL] | MIC [6] [µg/mL] | MIC [1] [µg/mL] | MIC [2] [µg/mL] | MIC [3] [µg/mL]
On1c(-c2ccccc2)cn(-c2ccccc2)c1=S [Compound 1, 3,5-diphenyl-1-hydroxy-1,2-dihydroimidazole-2-thione] | 2 (≈ 7.45 µM) | 2 (≈ 7.45 µM) | 8 (≈ 29.8 µM) | 64 (≈ 239 µM) | 256 (≈ 954 µM) | 16 (≈ 59.6 µM) | – | – | –
COc1ccc(-n2cc(-c3ccccc3)n(O)c2=S)cc1 [Compound 2, 3-(p-methoxyphenyl)-5-phenyl-1-hydroxy-1,2-dihydroimidazole-2-thione] | 8 (≈ 26.8 µM) | 4 (≈ 13.4 µM) | 64 (≈ 215 µM) | 32 (≈ 107 µM) | 2050 (≈ 6860 µM) | 1020 (≈ 3430 µM) | – | – | –
COc1ccc(-c2cn(-c3ccccc3)c(=S)n2O)cc1 [Compound 3, 5-(p-Methoxyphenyl)-3-phenyl-1-hydroxy-1,2-dihydroimidazole-2-thione] | 16 (≈ 53.6 µM) | 2 (≈ 6.7 µM) | 512 (≈ 1720 µM) | 32 (≈ 107 µM) | 32 (≈ 107 µM) | 512 (≈ 1720 µM) | – | – | –
[O-][n+]1ccccc1S [Pyrithione, sodium salt, sodium pyrithione, reference compound] | – | – | – | 8 to 32 | 4 to 8 | 64 to 128 | 2 to 32 | 4 to 16 | 32 to 128
